# Measured values: patent US11884706B2, “Immunomodulating peptide derived from concave-eared torrent frog and use thereof” (priority 2019, dated 2024)
# Columns and labels:
# mouse fibroblasts [1] = assay: Fibroblast proliferation, direct (CCK-8); type: cell-based; conditions: mouse fibroblasts, 25, 50, 100 μg/mL, 72 h
# Method: (§1) Keratinocytes HaCat and mouse fibroblasts (5×10^3 cells/well, 100 μL/well) were inoculated into a 96-well plate, and incubated with different concentrations of Ot-WHP (25, 50, and 100 μg/mL). PBS was used as a control. After HaCat was incubated with Ot-WHP for 24 h, and the fibroblasts were incubated with Ot-WHP for 72 h, 10 μl of Cell Counting Kit-8 (CCK-8) solution was added to each well, and incubated for another 2-4 h at 37° C. The absorbency at 450 nm was detected on a microplate reader.
# MAPKs (ERK, JNK subunit) = assay: Activation of MAPKs signaling in BMDMs; type: cell-based, mouse; conditions: BMDMs, 0, 25, 50, 100 μg/mL, 30 min
# Method: (§2) Mouse bone marrow-derived macrophages (BMDMs) were inoculated into a 6-well plate and cultured without serum for 16 h. For the detection of MAPKs and NF-κB, BMDMs were incubated with different concentrations of Ot-WHP (0, 25, 50, 100 μg/mL) for 30 min. For the detection of TGF-β/Smad signaling pathway, BMDMs were incubated with different concentrations of Ot-WHP (0, 25, 50, 100 μg/mL) for 24 h, or BMDMs were incubated with 100 μg/mL Ot-WHP, with or without TGF-β1 antibody.
# mouse neutrophils [2] = assay: Transwell migration in co-incubation system with BMDMs in lower chamber; type: cell-based; conditions: 25-100 μg/mL, 8 h
# Method: (§3) In a co-incubation system, mouse bone marrow-derived macrophages (BMDMs, 4×10^6 cells/mL, 500 μL) resuspended in RPMI 1640 medium containing 2% FBS were plated in the lower chamber (24-well plate) of the co-incubation chamber. After adherence, the prepared mouse neutrophils (7×10^6 cells/mL, 100 μL) or bone marrow-derived macrophages (BMDMs, 7×10^6 cells/mL, 100 μL) were added to the Transwell chamber with a pore size of 3.0 μm (upper chamber, 24-well plate). Then 500 μL of Ot-WHP (25, 50, 100 μg/mL, dissolved in RPMI 1640 medium containing 2% FBS) or the culture medium (control) was added to the lower chamber, and then cultured in a cell incubator at 37° C. for 8 h. The cells in the upper chamber were collected and counted with a hemocytometer. The reduced cells in the upper chamber are the migrated cells
# HaCat = assay: Keratinocyte proliferation, co-incubation with THP-1 derived macrophages (CCK-8); type: cell-based; conditions: HaCat with THP-1 derived macrophages, 25, 50, 100 μg/mL, 24 h
# Method: (§4) HaCat was co-incubated with THP-1 derived macrophages, and mouse fibroblasts were co-incubated with mouse macrophages BMDMs. HaCat (1×10^5 cells/well) or mouse fibroblasts (1×10^5 cells/well) were inoculated into a 24-well plate (lower chamber) one day in advance. After adherence, corresponding macrophages (1×10^5 cells/well, 100 μL) and different concentrations of Ot-WHP (25, 50, 100 μg/mL) or Vehicle (PBS, control) were added to the co-incubation chamber (upper chamber). After HaCat was co-incubated with THP-1-derived macrophages for 24 h, and the fibroblasts were co-incubated with mouse macrophages BMDMs for 72 h, the co-incubated upper chamber was discarded, and the cell activity in the lower chamber was detected by CCK-8.
# mouse fibroblasts [3] = assay: Fibroblast proliferation, co-incubation with mouse macrophages BMDMs (CCK-8); type: cell-based; conditions: mouse fibroblasts with BMDMs, 25, 50, 100 μg/mL, 72 h
# Method: as §4
# [4] = test system: bone marrow-derived macrophages (BMDMs); assay: Transwell migration in co-incubation system with BMDMs in lower chamber; type: cell-based, mouse; conditions: 25-100 μg/mL, 8 h
# Method: as §3
# fibroblasts [5] = assay: Collagen in fibroblast supernatant by ELISA, direct; type: cell-based, mouse; conditions: fibroblasts alone
# Method: as §1
# (§5) The method was the same as that in Example 8. The fibroblasts treated in Example 8 were lysed with RIPA cell lysis solution. The protein was extracted, and the expression of α-SMA was detected by Western blot. A higher expression level of α-SMA means a higher transformation of fibroblasts into […]. The supernatant of the fibroblasts treated in Example 8 was collected, and the production of collagen in the supernatant was quantitatively detected with an ELISA kit.
# mouse skin wounds = assay: Skin wound healing in mice (8 mm biopsy punch wound on the back); type: in vivo, BALB/c mice; conditions: 20 μL, 200 μg/mL dripped into wound once a day for 8 days; days 2, 4, 6, 8 after operation; vs PBS
# Method: Experimental animals BALB/c mice, female, 6-8 weeks old, weighed 18-20 g, were purchased from Shanghai Slac Animal Co., Ltd. The mice were anesthetized by intraperitoneal injection of 2% sodium pentobarbital (0.1 mL/20 g), and the back was shaved with an electric razor and disinfected with iodophor. A hole was punched in the exposed back by a biopsy punch having a diameter of 8 mm. After the operation, the mice were kept in separate cages until the end of the experiment. The mice were randomly divided into 6 groups having 5 animals in each group, including a negative control group (20 μL PBS), a natural Ot-WHP group (20 μL, 200 μg/mL), a synthetic Ot-WHP group (20 μL, 200 μg/mL), a scrambled Ot-WHP group (SEQ ID NO:2, 20 μL, 200 μg/mL), an AH90 positive polypeptide control group (20 μL, 200 μg/mL), and an EGF growth factor control group (20 μL, 100 μg/mL). The drugs were dripped into corresponding wounds in mice once a day for 8 days.
# FIGS. 3A1-A4 show the wound healing rate of mice in different experimental groups at 2, 4, 6, and 8 days after surgery. In the figures, Vehicle represents the negative control group; synthetic Ot-WHP represents the synthetic Ot-WHP group; Natural Ot-WHP represents the natural Ot-WHP group; and Scrambled Ot-WHP represents the scrambled Ot-WHP group.
# [6] = test system: bone marrow-derived macrophages (BMDMs); assay: Transwell migration, direct (peptide in lower chamber); type: cell-based, mouse; conditions: 25-100 μg/mL, 8 h, no macrophages in lower chamber
# Method: (§6) To clarify how Ot-WHP chemoattracts neutrophils and macrophages to the wound area, the prepared mouse neutrophils or bone marrow-derived macrophages (BMDMs) were resuspended in RPMI 1640 medium containing 2% FBS at a cell density of 7×10^6 cells/mL. 100 μL was pipetted to a Transwell chamber with a pore size of 3.0 μm (upper chamber, 24-well plate). Then 500 μL of Ot-WHP (25, 50, 100 μg/mL, dissolved in RPMI 1640 medium containing 2% FBS) or the culture medium (control) was pipetted to the lower chamber, and then cultured in a cell incubator at 37° C. for 8 h. The cells in the lower chamber were collected and counted with a hemocytometer.
# skin wounds of mice = assay: Chemokine and cytokine production in skin wound tissue homogenate; type: in vivo; conditions: days 0, 0.5, 1, 2, 4, 6, vs PBS
# Method: Then whether Ot-WHP can induce the production of chemokines and cytokines in the skin wounds of mice was tested. At specified time points (days 0, 0.5, 1, 2, 4, and 6), the wound tissue of the mice was removed and homogenized with 0.1 M PBS (containing 1 mM PMSF, 1 mL/g tissue) in a glass homogenizer. After the homogenization, the homogenate was centrifuged at 12000×g and 4° C. for 30 min. The supernatant was collected, and the chemokines (CXCL1 and CCL2) and cytokines (including TNF-α and TGF-β1) were determined.
# fibroblasts [7] = assay: Collagen in fibroblast supernatant by ELISA, co-incubation with macrophages; type: cell-based, mouse; conditions: fibroblasts co-incubated with macrophages
# Method: as §4, §5
# [8] = test system: NF-κB (IκBα, p65 subunit); assay: Activation of NF-κB signaling in BMDMs; type: cell-based, mouse; conditions: BMDMs, 0, 25, 50, 100 μg/mL, 30 min
# Method: as §2
# α-SMA in fibroblasts [9] = assay: α-SMA expression in fibroblasts by Western blot, co-incubation with macrophages; type: cell-based, mouse; conditions: fibroblasts co-incubated with macrophages
# Method: as §4, §5
# Keratinocytes HaCat = assay: Keratinocyte proliferation, direct (CCK-8); type: cell-based; conditions: HaCat, 25, 50, 100 μg/mL, 24 h
# Method: as §1
# neutrophils = assay: Immunohistochemical count of neutrophils (anti-Ly6G) recruited to the wound; type: in vivo, mice; conditions: natural Ot-WHP dripped to wound; days 0.5 and 1 after operation; vs negative control
# Method: (§7) The mice were treated according to the method in Example 3. The drugs in the negative control group and the natural Ot-WHP group were dripped to wounds of corresponding mice. At specified time point (0.5, 1, 2, 3 days) after the operation, the mice were sacrificed. A biopsy tissue containing the wound center was taken, immobilized with 10% formalin, then dehydrated by ethanol, washed with xylene, and finally embedded in paraffin. The paraffin block was cut into 5 μm slices, deparaffinized, and hydrated, and antigen retrieval was performed for immunohistochemical analysis. The slice was blocked with 5% BSA for non-specific sites, incubated with the primary antibody (anti-Ly6G for neutrophils, and anti-F4/80 for macrophages) at 4° C., and immunostained with horseradish peroxidase and DBA. The infiltration by neutrophils and macrophages was measured by statistically counting the immunostained anti-Ly6G and anti-F4/80 cells.
# (§8) FIGS. 4A1-A4 show the immunohistochemical results of neutrophils recruited on days 0.5 and 1 after operation of mice in different groups. FIGS. 4C1-C4 show the immunohistochemical results of macrophages recruited on days 2 and 3 after operation of mice in different groups. FIGS. 4B1-B2 show the statistical results of neutrophils recruited on days 0.5 and 1 after operation of mice in different groups. […]
# macrophages = assay: Immunohistochemical count of macrophages (anti-F4/80) recruited to the wound; type: in vivo, mice; conditions: natural Ot-WHP dripped to wound; days 2 and 3 after operation; vs negative control
# Method: as §7, §8
# [10] = test system: mouse bone marrow-derived macrophages (BMDMs); assay: Chemokine and cytokine production in BMDM supernatant; type: cell-based; conditions: 25, 50, 100 μg/mL, 24 h, vs PBS
# Method: To clarify why Ot-WHP can cause the migration of neutrophils and macrophages in the coexistence of macrophages, mouse bone marrow-derived macrophages (BMDMs, 5×10^5 cells/well, DMEM medium, 2% FBS) were plated in a 24-well plate, Ot-WHP (25, 50, 100 μg/mL) or an equal volume of PBS (Vehicle) were added, and cultured for 24 h. The supernatant was collected, and centrifuged at 10000×g for 10 min. The chemokines and cytokines were determined.
# Smad (Smad2, Smad3) = assay: Activation of TGF-β/Smad signaling in BMDMs; type: cell-based, mouse
# Method: as §2
# mouse neutrophils [11] = assay: Transwell migration, direct (peptide in lower chamber); type: cell-based; conditions: 25-100 μg/mL, 8 h, no macrophages in lower chamber
# Method: as §6
# α-SMA in fibroblasts [12] = assay: α-SMA expression in fibroblasts by Western blot, direct; type: cell-based, mouse; conditions: fibroblasts alone, treated as in Example 8
# Method: as §1, §5
substance,measurement,setting,value
"Ot-WHP: immunomodulating peptide of 24 amino acids from concave-eared torrent frog skin, sequence ATAWDLGPHGIRPLRPIRIRPLCG (SEQ ID NO:1); natural (purified) or chemically synthesized (Ot-WHP Peptide; listed as Odorrana tormota)","proliferation of fibroblasts, direct",mouse fibroblasts [1],cannot directly promote the proliferation
same,"activation of MAPKs (ERK, JNK subunit) signaling pathway","MAPKs (ERK, JNK subunit)",activates
same,migration of neutrophils when macrophages coexist,mouse neutrophils [2],significantly causes the migration
same,proliferation of keratinocytes when macrophages coexist,HaCat,can promote the proliferation
same,proliferation of fibroblasts when macrophages coexist,mouse fibroblasts [3],can promote the proliferation
same,migration of macrophages when macrophages coexist,[4],significantly causes the migration
same,"collagen production by fibroblasts, direct",fibroblasts [5],no direct effect on the collagen production by fibroblasts
same,healing of mouse skin wounds (wound healing rate),mouse skin wounds,significantly promote the healing of mouse skin wounds with an effect comparable to AH90 and EGF
same,"migration of macrophages, direct",[6],does not directly cause the migration
same,CCL2 production in skin wounds,skin wounds of mice,effectively induce the production
same,CXCL1 production in skin wounds,skin wounds of mice,effectively induce the production
same,TGF-β1 production in skin wounds,skin wounds of mice,effectively induce the production
same,TNF-α production in skin wounds,skin wounds of mice,effectively induce the production
same,collagen production by fibroblasts with coexisting macrophages,fibroblasts [7],promote the collagen production by fibroblasts
same,"activation of NF-κB (IκBα, p65 subunit) signaling pathway",[8],activates
same,expression of α-SMA by fibroblasts (transformation into fibrocytes) with coexisting macrophages,α-SMA in fibroblasts [9],promote the expression of α-SMA by fibroblast
same,"proliferation of keratinocytes, direct",Keratinocytes HaCat,cannot directly promote the proliferation
same,migration of neutrophils to the wound,neutrophils,promote the migration of neutrophils and macrophages to the wound
same,migration of macrophages to the wound,macrophages,promote the migration of neutrophils and macrophages to the wound
same,CCL2 production in BMDMs,[10],induces mouse BMDMs to produce
same,CXCL1 production in BMDMs,[10],induces mouse BMDMs to produce
same,CXCL2 production in BMDMs,[10],induces mouse BMDMs to produce
same,CXCL3 production in BMDMs,[10],induces mouse BMDMs to produce
same,IL-1β production in BMDMs,[10],induces mouse BMDMs to produce
same,IL-6 production in BMDMs,[10],induces mouse BMDMs to produce
same,TGF-β1 production in BMDMs,[10],induces mouse BMDMs to produce
same,TNF-α production in BMDMs,[10],induces mouse BMDMs to produce
same,"activation of Smad (Smad2, Smad3) signaling pathway","Smad (Smad2, Smad3); BMDMs, 0, 25, 50, 100 μg/mL, 24 h",activates
same,dependence of Smad activation on TGF-β,"Smad (Smad2, Smad3); BMDMs, 100 μg/mL, with or without TGF-β1 antibody",dependent on the production of TGF-β induced by Ot-WHP
same,"migration of neutrophils, direct",mouse neutrophils [11],does not directly cause the migration
same,"expression of α-SMA in fibroblasts (transformation into fibrocytes), direct",α-SMA in fibroblasts [12],no direct effect on the expression of α-SMA in fibroblasts
"scrambled Ot-WHP: scrambled Ot-WHP, SEQ ID NO:2, control peptide (PGPIPAHLGRRWAILIRPDLTRCG; Scrambled Ot-WHP Peptide) [reference compound]",healing of mouse skin wounds (wound healing rate),mouse skin wounds,no activity to promote wound repair
